Read-outs that look alike come from different tables or passages of the source.
Assays:
Type in all cases: cell-based
[1] = test system: anaplastic large cell lymphoma cells (DEL); experiment: In vitro potency (CellTiter-Glo, 96 h), DEL
Procedure, shortened: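 Log-phase cells were seeded for 24 h in RPMI 1640 with 20% FBS, then exposed to serially diluted antibody-drug conjugates or free camptothecin drug for 4 days at 37 °C. Growth inhibition was read by luminescence, and IC50 values were reported in ng/mL and nmol/L.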

[2] = test system: anaplastic large cell lymphoma cells (DELBVR); experiment: In vitro potency (CellTiter-Glo, 96 h), DELBVR
Procedure, shortened: (§1)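 Growth inhibition after 96 h at 37 °C with test article, measured by luminescence; cells in RPMI 1640, 20% FBS.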

[3] = test system: pancreatic cancer cells (BxPC3); experiment: In vitro potency (CellTiter-Glo, 96 h), BxPC3; settings: Homo sapiens, BXPC-3, 96 h
Procedure, shortened: (§2)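 Cells in log-phase growth seeded 24 h in RPMI 1640 with 20% FBS, then exposed to serially diluted ADC or CPT free drug for 96 h at 37 °C. Growth inhibition read by CellTiter-Glo luminescence; IC50 reported in ng/mL or nmol/L.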

melanoma cells (A2058) = experiment: In vitro potency (CellTiter-Glo, 96 h), A2058; settings: Homo sapiens, A2058, 96 h
Procedure, shortened: as §2

[4] = test system: anaplastic large cell lymphoma cells (Karpas299); experiment: In vitro potency (CellTiter-Glo, 96 h), Karpas299; settings: Homo sapiens, KARPAS-299, 96 h
Procedure, shortened: as §1

Ls174T cells = experiment: In vitro potency (CellTiter-Glo, 96 h), Ls174T; settings: Homo sapiens, LS174T
Procedure, shortened: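 Medium: RPMI 1640 + 20% FBS. Pre-seeding: 24 h. Treatment: ADC or CPT free drug serial dilutions, 96 h, 37 °C. Read-out: luminescence; IC50 in ng/mL and nmol/L.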

[5] = test system: acute myeloid leukemia cells (MOLM-13); experiment: In vitro potency (CellTiter-Glo, 96 h), MOLM-13; settings: Homo sapiens, MOLM-13, 96 h
Procedure, shortened: as §2

[6] = test system: Hodgkin's lymphoma cells (L540cy); experiment: In vitro potency (CellTiter-Glo, 96 h), L540cy
Procedure, shortened: as §1

[7] = test system: breast cancer cells (MDA-MB-231); experiment: In vitro potency (CellTiter-Glo, 96 h), MDA-MB-231; settings: Homo sapiens, MDA-MB-231, 96 h
Procedure, shortened: as §1

[8] = test system: non-small-cell lung cancer cells (Calu1); experiment: In vitro potency (CellTiter-Glo, 96 h), Calu1; settings: Homo sapiens, Calu-1, 96 h
Procedure, shortened: as §2

[9] = test system: B-lymphocyte cancer cells (SU-DHL4); experiment: In vitro potency (CellTiter-Glo, 96 h), SU-DHL-4; settings: Homo sapiens, SU-DHL-4, 96 h
Procedure, shortened: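 IC50 (ng/mL or nmol/L) derived from CellTiter-Glo luminescence after 96 h exposure at 37 °C to serial dilutions of ADC or CPT free drug. Log-phase cells had been plated 24 h beforehand in RPMI 1640 containing 20% FBS.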

[10] = test system: renal carcinoma cells (786-O); experiment: In vitro potency (CellTiter-Glo, 96 h), 786-O; settings: Homo sapiens, 786-0, 96 h
Procedure, shortened: as §1

[11] = CPT free drugs, Table 24, CellTiter-Glo after 96 h exposure, read-out: IC50 (nmol/L) DEL
[12] = CPT free drugs, Table 24, CellTiter-Glo after 96 h exposure, read-out: IC50 (nmol/L) DELBVR
[13] = CPT free drugs, Table 24, CellTiter-Glo after 96 h exposure, read-out: IC50 (nmol/L) BxPC3
[14] = CPT free drugs, Table 24, CellTiter-Glo after 96 h exposure, read-out: IC50 (nmol/L) A2058
[15] = CPT free drugs, Table 24, CellTiter-Glo after 96 h exposure, read-out: IC50 (nmol/L) Karpas299
[16] = CPT free drugs, Table 24, CellTiter-Glo after 96 h exposure, read-out: IC50 (nmol/L) Ls174T
[17] = CPT free drugs, Table 24, CellTiter-Glo after 96 h exposure, read-out: IC50 (nmol/L) MOLM-13
[18] = CPT free drugs, Table 24, CellTiter-Glo after 96 h exposure, read-out: IC50 (nmol/L) L540cy
[19] = CPT free drugs, Table 24, CellTiter-Glo after 96 h exposure, read-out: IC50 (nmol/L) MDAMB231
[20] = CPT free drugs, Table 24, CellTiter-Glo after 96 h exposure, read-out: IC50 (nmol/L) Calu1
[21] = CPT free drugs, Table 24, CellTiter-Glo after 96 h exposure, read-out: IC50 (nmol/L) SU-DHL-4
[22] = CPT free drugs, Table 24, CellTiter-Glo after 96 h exposure, read-out: IC50 (nmol/L) 786-O
[23] = read-out: DEL IC50, camptothecin free drug, 96 h
[24] = read-out: DELBVR IC50, camptothecin free drug, 96 h
[25] = read-out: BxPC3 IC50, camptothecin free drug, 96 h
[26] = read-out: Karpas299 IC50, camptothecin free drug, 96 h
[27] = 96 h, read-out: Ls174T IC50, camptothecin free drug, 96 h
[28] = read-out: MOLM-13 IC50, camptothecin free drug, 96 h
[29] = read-out: L540cy IC50, camptothecin free drug, 96 h
[30] = read-out: MDAMB231 IC50, camptothecin free drug, 96 h
[31] = read-out: SU-DHL-4 IC50, camptothecin free drug, 96 h
[32] = read-out: 786-O IC50, camptothecin free drug, 96 h

Row | Compound | IC50 [1, 11] | IC50 [2, 12] | IC50 [3, 13] | IC50 (melanoma cells (A2058); [14]) | IC50 [4, 15] | IC50 (Ls174T cells; [16]) | IC50 [5, 17] | IC50 [6, 18] | IC50 [7, 19] | IC50 [8, 20] | IC50 [9, 21] | IC50 [10, 22] | further results
1 | CC[C@@]1(O)C(=O)OCc2c1cc1n(c2=O)Cc2c-1nc1ccc3c(c1c2CN)OCC3 [Compound 2t] | 18 nmol/L | 33 nmol/L | 230 nmol/L | 39 nmol/L | 133 nmol/L | 18 nmol/L | 179 nmol/L | 43 nmol/L | 73 nmol/L | ≥ 1000 nmol/L | 51 nmol/L | 101 nmol/L | –
2 | CC[C@@]1(O)C(=O)OCc2c1cc1n(c2=O)Cc2c-1nc1cc(Br)c(C)c(F)c1c2CN [Compound 2k] | 3.5 nmol/L | 3.3 nmol/L | 42 nmol/L | 4 nmol/L | 14 nmol/L | 11.9 nmol/L | 58 nmol/L | 4 nmol/L | 8 nmol/L | 81 nmol/L | 4 nmol/L | 5 nmol/L | –
3 | CC[C@@]1(O)C(=O)OCc2c1cc1n(c2=O)Cc2c-1nc1cc(F)c(C)cc1c2CN [Compound 2h] | 0.5 nmol/L | 0.8 nmol/L | 8 nmol/L | 1 nmol/L | 3 nmol/L | 1.7 nmol/L | 14 nmol/L | 3 nmol/L | 2 nmol/L | 16 nmol/L | 2 nmol/L | 3 nmol/L | –
4 | CC[C@@]1(O)C(=O)OCc2c1cc1n(c2=O)Cc2c-1nc1cc(F)c(C)c(C)c1c2CN [Compound 2s] | – | – | – | – | – | – | – | – | – | – | – | – | IC50 ([1]; read-out: IC50 (nmol/L) DEL, CPT free drugs, Table 24, CellTiter-Glo after 96 h exposure): 1 nmol/L; IC50 ([2]; read-out: IC50 (nmol/L) DELBVR, CPT free drugs, Table 24, CellTiter-Glo after 96 h exposure): 1 nmol/L; IC50 ([3]; read-out: IC50 (nmol/L) BxPC3, CPT free drugs, Table 24, CellTiter-Glo after 96 h exposure): 7 nmol/L; IC50 (melanoma cells (A2058); read-out: IC50 (nmol/L) A2058): 1 nmol/L; IC50 ([4]; read-out: IC50 (nmol/L) Karpas299, CPT free drugs, Table 24, CellTiter-Glo after 96 h exposure): 2 nmol/L; IC50 (Ls174T cells; 96 h, read-out: IC50 (nmol/L) Ls174T, CPT free drugs, Table 24, CellTiter-Glo after 96 h exposure): 3.7 nmol/L; IC50 ([5]; read-out: IC50 (nmol/L) MOLM-13, CPT free drugs, Table 24, CellTiter-Glo after 96 h exposure): 18 nmol/L; IC50 ([6]; read-out: IC50 (nmol/L) L540cy, CPT free drugs, Table 24, CellTiter-Glo after 96 h exposure): 2 nmol/L; IC50 ([7]; read-out: IC50 (nmol/L) MDAMB231, CPT free drugs, Table 24, CellTiter-Glo after 96 h exposure): 2 nmol/L; IC50 ([8]; read-out: IC50 (nmol/L) Calu1): 22 nmol/L; IC50 ([9]; read-out: IC50 (nmol/L) SU-DHL-4, CPT free drugs, Table 24, CellTiter-Glo after 96 h exposure): 2 nmol/L; IC50 ([10]; read-out: IC50 (nmol/L) 786-O, CPT free drugs, Table 24, CellTiter-Glo after 96 h exposure): 3 nmol/L
5 | CC[C@@]1(O)C(=O)OCc2c1cc1n(c2=O)Cc2c-1nc1ccc(Cl)cc1c2CN [Compound 2c] | 1.7 nmol/L | 3.3 nmol/L | 19 nmol/L | 3 nmol/L | 8 nmol/L | 3.9 nmol/L | 21 nmol/L | 5 nmol/L | 6 nmol/L | 45 nmol/L | 3 nmol/L | 6 nmol/L | –
6 | CC[C@@]1(O)C(=O)OCc2c1cc1n(c2=O)Cc2c-1nc1cc(F)c(O)cc1c2CN [Compound 3b] | > 1000 nmol/L | > 1000 nmol/L | > 1000 nmol/L | > 1000 nmol/L | > 1000 nmol/L | > 1000 nmol/L | > 1000 nmol/L | > 1000 nmol/L | > 1000 nmol/L | > 1000 nmol/L | > 1000 nmol/L | > 1000 nmol/L | –
7 | CC[C@@]1(O)C(=O)OCc2c1cc1n(c2=O)Cc2c-1nc1ccc(C(F)(F)F)cc1c2CN [Compound 2g] | 17.6 nmol/L | 33.5 nmol/L | 258 nmol/L | 37 nmol/L | 221 nmol/L | 65.3 nmol/L | 598 nmol/L | 62 nmol/L | 79 nmol/L | 755 nmol/L | 60 nmol/L | 102 nmol/L | –
8 | CC[C@@]1(O)C(=O)OCc2c1cc1n(c2=O)Cc2c-1nc1cc3c(cc1c2CNC1CCN(C(=O)OC(C)(C)C)CC1)OCO3 [Compound 7q] | – | – | – | – | – | – | – | – | – | – | – | – | IC50 ([1]; camptothecin free drug, read-out: DEL IC50): 6 nmol/L; IC50 ([2]; camptothecin free drug, read-out: DELBVR IC50): 13 nmol/L; IC50 ([3]; camptothecin free drug, 96 h, read-out: BxPC3 IC50): 28 nmol/L; IC50 (melanoma cells (A2058); camptothecin free drug, 96 h, read-out: A2058 IC50): 7 nmol/L; IC50 ([4]; camptothecin free drug, 96 h, read-out: Karpas299 IC50): 26 nmol/L; IC50 (Ls174T cells; camptothecin free drug, 96 h, read-out: Ls174T IC50): 24 nmol/L; IC50 ([5]; camptothecin free drug, 96 h, read-out: MOLM-13 IC50): 33 nmol/L; IC50 ([6]; camptothecin free drug, read-out: L540cy IC50): 15 nmol/L; IC50 ([7]; camptothecin free drug, 96 h, read-out: MDAMB231 IC50): 131 nmol/L; IC50 ([8]; camptothecin free drug, 96 h, read-out: Calu1 IC50): 1000 nmol/L; IC50 ([9]; camptothecin free drug, 96 h, read-out: SU-DHL-4 IC50): 17 nmol/L; IC50 ([10]; camptothecin free drug, 96 h, read-out: 786-O IC50): 26 nmol/L
9 | CC[C@@]1(O)C(=O)OCc2c1cc1n(c2=O)Cc2c-1nc1cc3c(cc1c2CN)CCC3 [Compound 2v] | 9 nmol/L | 14 nmol/L | 165 nmol/L | 19 nmol/L | 37 nmol/L | 17 nmol/L | 350 nmol/L | 19 nmol/L | 34 nmol/L | 247 nmol/L | 33.8 nmol/L | 33 nmol/L | –
10 | CC[C@@]1(O)C(=O)OCc2c1cc1n(c2=O)Cc2c-1nc1cc3c(cc1c2CN(C)C)OCO3 [Compound 7ae] | – | – | – | – | – | – | – | – | – | – | – | – | IC50 [1, 23]: 8 nmol/L; IC50 [2, 24]: 14 nmol/L; IC50 [3, 25]: 48 nmol/L; IC50 (melanoma cells (A2058); read-out: A2058 IC50): 11 nmol/L; IC50 [4, 26]: 42 nmol/L; IC50 (Ls174T cells; [27]): 46 nmol/L; IC50 [5, 28]: 165 nmol/L; IC50 [6, 29]: 20 nmol/L; IC50 [7, 30]: 164 nmol/L; IC50 ([8]; read-out: Calu1 IC50): 555 nmol/L; IC50 [9, 31]: 23 nmol/L; IC50 [10, 32]: 39 nmol/L
11 | CC[C@@]1(O)C(=O)OCc2c1cc1n(c2=O)Cc2c-1nc1cc3c(cc1c2CNCCS(N)(=O)=O)OCO3 [Compound 7d] | – | – | – | – | – | – | – | – | – | – | – | – | IC50 [1, 23]: 8 nmol/L; IC50 [2, 24]: 13 nmol/L; IC50 [3, 25]: 38 nmol/L; IC50 (melanoma cells (A2058); read-out: A2058 IC50): 10 nmol/L; IC50 [4, 26]: 39 nmol/L; IC50 (Ls174T cells; [27]): 18 nmol/L; IC50 [5, 28]: 61 nmol/L; IC50 [6, 29]: 16 nmol/L; IC50 [7, 30]: 195 nmol/L; IC50 ([8]; read-out: Calu1 IC50): 1000 nmol/L; IC50 [9, 31]: 20 nmol/L; IC50 [10, 32]: 37 nmol/L

Source: patent publication US20240207427A1, “SELECTIVE DRUG RELEASE FROM INTERNALIZED CONJUGATES OF BIOLOGICALLY ACTIVE COMPOUNDS” (priority 2021, published 2024)
